# Earlier results, collected in patent publication US5519028A, “Antiviral preparations” (priority 1992, dated 1996).
# System: viruses of vaccine
# Conditions: intracutaneously 200-600 μg or 2.5-500 mg/day; cited from earlier work
compound,measurement,value
CCc1ccc2c3[nH]c4ccccc4c3cc[n+]2c1 [flavopereirine],appearance and development of vital papules,prevents the appearance and development of vital papules
